Data reported in patent publication US10875832B2, “Substituted pyrimidines for treating bacterial infections” (FORGE THERAPEUTICS, INC., priority 2015, dated 2020).
Converted amounts (≈) assume the structure as drawn.

Key:
Type in all cases: cell-based
[1] = tested on: S. aureus ATCC 29213; test: MIC by broth microdilution, S. aureus ATCC 29213; settings: Staphylococcus aureus, ATCC29213; 35° C., 18-24 h
Method: (§1) Minimal inhibitory concentrations (MIC) were determined by the broth microdilution method in accordance with the Clinical and Laboratory Standards Institute (CLSI) guidelines. In brief, organism suspensions were adjusted to a 0.5 McFarland standard to yield a final inoculum between 3×10^5 and 7×10^5 colony-forming units (CFU)/mL. Drug dilutions and inocula were made in sterile, cation adjusted Mueller-Hinton Broth (Beckton Dickinson). An inoculum volume of 100 μL was added to wells containing 100 μL of broth with 2-fold serial dilutions of drug. All inoculated microdilution trays were incubated in ambient air at 35° C. for 18-24 h. […] Performance of the assay was monitored by the use of laboratory quality-control strains and levofloxacin, a compound with a defined MIC spectrum, in accordance with CLSI guidelines.

[2] = tested on: E. coli ATCC 25922; test: MIC by broth microdilution, E. coli ATCC 25922, no FBS; settings: Escherichia coli, ATCC25922, 35° C., 18-24 h
Method: as §1

[3] = tested on: E. coli delta to IC mutant; test: MIC by broth microdilution, E. coli delta tolC mutant; settings: Escherichia coli, read-out: MIC E. coli delta to IC mutant
Method: as §1

[4] = tested on: E. coli BW25113; test: MIC by broth microdilution, E. coli BW25113, no FBS; settings: Escherichia coli, 35° C., 18-24 h
Method: as §1

[5] = tested on: E. coli imp mutant; test: MIC by broth microdilution, E. coli imp mutant; settings: Escherichia coli, read-out: MIC E. coli imp mutant
Method: as §1

[6] = tested on: P. aeruginosa 209; test: MIC by broth microdilution, P. aeruginosa 209; settings: Pseudomonas aeruginosa, 35° C., 18-24 h
Method: as §1

[7] = tested on: P. aeruginosa 210 delta mexAB-OprM; test: MIC by broth microdilution, P. aeruginosa 210 delta mexAB-OprM; settings: Pseudomonas aeruginosa, read-out: MIC P. aeruginosa 210 delta mexAB-OprM
Method: as §1

Structure (SMILES) | MIC [1] | MIC [2] | MIC [3] | MIC [4] | MIC [5] | MIC [6] | MIC [7]
CCN(CC)CCCNC(=O)c1ccc(C#CC#Cc2ccc(NCc3nc[nH]c(=O)c3O)cc2)cc1 [Compound 76] | > 32 µg/mL | 8 to 32 µg/mL (≈ 16.1 to 64.3 µM) | < 1 µg/mL | 1 to 8 µg/mL (≈ 2.01 to 16.1 µM) | 1 to 8 µg/mL (≈ 2.01 to 16.1 µM) | > 32 µg/mL | > 32 µg/mL
O=c1[nH]cnc(CN(CCO)c2ccc(C#Cc3ccc(CN4CCOCC4)cc3)cc2)c1O [Compound 113] |  | > 32 µg/mL | > 32 µg/mL |  | > 32 µg/mL |  | 
Cc1nc(CO)c(O)c(=O)n1CC(O)c1ccc(-c2ccccc2)cc1 (stereo not shown) [Compound 92] | > 32 µg/mL | > 32 µg/mL |  |  |  | > 32 µg/mL | 
O=C(c1ccc(C#CC#Cc2ccc(NCc3nc[nH]c(=O)c3O)cc2)cc1)N1CCC(N2CCOCC2)CC1 [Compound 78] | > 32 µg/mL | > 32 µg/mL | < 1 µg/mL | 1 to 8 µg/mL (≈ 1.86 to 14.9 µM) | < 1 µg/mL | > 32 µg/mL | > 32 µg/mL
Cc1nc(C(=O)O)c(O)c(=O)n1CC(=O)c1ccc(-c2ccccc2)cc1 [Compound 82, 1-(2-([1,1′-biphenyl]-4-yl)-2-oxoethyl)-5-hydroxy-2-methyl-6-oxo-1,6-dihydro pyrimidine-4-carboxylic acid] | > 32 µg/mL | > 32 µg/mL | 8 to 32 µg/mL (≈ 22 to 87.8 µM) | > 32 µg/mL | 1 to 8 µg/mL (≈ 2.74 to 22 µM) | > 32 µg/mL | > 32 µg/mL
O=C(c1ccc(C#CC#Cc2ccc(NCc3nc[nH]c(=O)c3O)cc2)cc1)N1CC(O)C1 [Compound 86] | > 32 µg/mL | < 1 µg/mL | < 1 µg/mL | < 1 µg/mL | < 1 µg/mL | > 32 µg/mL | > 32 µg/mL
O=c1[nH]cnc(CNc2ccc(-c3ccccc3)cc2)c1O [Compound 96] | > 32 µg/mL | > 32 µg/mL | > 32 µg/mL | > 32 µg/mL | > 32 µg/mL | > 32 µg/mL | > 32 µg/mL
O=C(NCCN1CCCC1)c1ccc(C#CC#Cc2ccc(NCc3nc[nH]c(=O)c3O)cc2)cc1 [Compound 75] | > 32 µg/mL | 8 to 32 µg/mL (≈ 16.6 to 66.5 µM) | < 1 µg/mL | 1 to 8 µg/mL (≈ 2.08 to 16.6 µM) | 1 to 8 µg/mL (≈ 2.08 to 16.6 µM) | > 32 µg/mL | > 32 µg/mL
CNC(=O)c1ccc(C#CC#Cc2ccc(NCc3nc[nH]c(=O)c3O)cc2)cc1 [Compound 72, 4-((4-(((5-hydroxy-6-oxo-1,6-dihydropyrimidin-4-yl)methyl)amino)phenyl)buta-1,3-diyn-1-yl)-N-methylbenzamide] | > 32 µg/mL | < 1 µg/mL | < 1 µg/mL | < 1 µg/mL | < 1 µg/mL | > 32 µg/mL | > 32 µg/mL
Cc1nc(C(=O)O)c(O)c(=O)n1C/C(=N/O)c1ccc(-c2ccccc2)cc1 [Compound 95, (E)-1-(2-([1,1′-biphenyl]-4-yl)-2-(hydroxyimino)ethyl)-5-hydroxy-2-methyl-6-oxo-1,6-dihydropyrimidine-4-carboxylic acid] | > 32 µg/mL | > 32 µg/mL | > 32 µg/mL | > 32 µg/mL | 8 to 32 µg/mL (≈ 21.1 to 84.3 µM) | > 32 µg/mL | > 32 µg/mL
Cc1nc(C(=O)O)c(O)c(=O)n1CC(O)c1ccc(-c2ccccc2)cc1 (stereo not shown) [Compound 83, 1-(2-([1,1′-biphenyl]-4-yl)-2-hydroxyethyl)-5-hydroxy-2-methyl-6-oxo-1,6-dihydro pyrimidine-4-carboxylic acid] | > 32 µg/mL | > 32 µg/mL | 8 to 32 µg/mL (≈ 21.8 to 87.3 µM) | > 32 µg/mL | 1 to 8 µg/mL (≈ 2.73 to 21.8 µM) | > 32 µg/mL | > 32 µg/mL
O=C(O)c1ccc(C#Cc2ccc(NCc3nc[nH]c(=O)c3O)cc2)cc1 [Compound 101] | > 32 µg/mL | > 32 µg/mL | 1 to 8 µg/mL (≈ 2.77 to 22.1 µM) | > 32 µg/mL | > 32 µg/mL | > 32 µg/mL | > 32 µg/mL
Cc1nc(C(=O)O)c(O)c(=O)n1CC(O)c1ccc(C#Cc2ccc(CN3CCOCC3)cc2)cc1 (stereo not shown) [Compound 93] | > 32 µg/mL | > 32 µg/mL | > 32 µg/mL | > 32 µg/mL | > 32 µg/mL | > 32 µg/mL | > 32 µg/mL
CN(C)C1CCN(C(=O)c2ccc(C#CC#Cc3ccc(NCc4nc[nH]c(=O)c4O)cc3)cc2)CC1 [Compound 74] | > 32 µg/mL | 8 to 32 µg/mL (≈ 16.1 to 64.6 µM) | < 1 µg/mL | 1 to 8 µg/mL (≈ 2.02 to 16.1 µM) | 1 to 8 µg/mL (≈ 2.02 to 16.1 µM) | > 32 µg/mL | > 32 µg/mL
O=c1[nH]cnc(CNc2ccc(C#Cc3ccc(-c4nnn[nH]4)cc3)cc2)c1O [Compound 103] | > 32 µg/mL | > 32 µg/mL | 1 to 8 µg/mL (≈ 2.59 to 20.8 µM) | > 32 µg/mL | > 32 µg/mL | > 32 µg/mL | > 32 µg/mL
O=c1[nH]cnc(CS(=O)(=O)c2ccc(C#Cc3ccc(CN4CCOCC4)cc3)cc2)c1O [Compound 102] | > 32 µg/mL | 8 to 32 µg/mL (≈ 17.2 to 68.7 µM) | 8 to 32 µg/mL (≈ 17.2 to 68.7 µM) | 8 to 32 µg/mL (≈ 17.2 to 68.7 µM) | 8 to 32 µg/mL (≈ 17.2 to 68.7 µM) | > 32 µg/mL | 8 to 32 µg/mL (≈ 17.2 to 68.7 µM)
O=C(NCCO)c1ccc(C#CC#Cc2ccc(NCc3nc[nH]c(=O)c3O)cc2)cc1 [Compound 88] | > 32 µg/mL | < 1 µg/mL | < 1 µg/mL | < 1 µg/mL | < 1 µg/mL | > 32 µg/mL | > 32 µg/mL
CC(O)C(Cc1ccc(C#Cc2ccc(CN3CCOCC3)cc2)cc1)n1cncc(O)c1=O (stereo not shown) [Compound 108] |  | > 32 µg/mL | 8 to 32 µg/mL (≈ 17.4 to 69.6 µM) |  | 8 to 32 µg/mL (≈ 17.4 to 69.6 µM) |  | 
O=c1c(O)cccn1C(CO)Cc1ccc(C#Cc2ccc(CN3CCOCC3)cc2)cc1 (stereo not shown) [Compound 114, 3-hydroxy-1-(1-hydroxy-3-(4-((4-(morpholinomethyl)phenyl)ethynyl)phenyl)propan-2-yl)pyridin-2(1H)-one] |  | 8 to 32 µg/mL (≈ 18 to 72 µM) | 1 to 8 µg/mL (≈ 2.25 to 18 µM) |  | 1 to 8 µg/mL (≈ 2.25 to 18 µM) |  | 
N#CC(Cc1ccc(C#Cc2ccc(CN3CCOCC3)cc2)cc1)n1cncc(O)c1=O (stereo not shown) [Compound 106] |  | > 32 µg/mL | < 1 µg/mL |  | 8 to 32 µg/mL (≈ 18.2 to 72.6 µM) |  | 
CC(=O)C(Cc1ccc(C#Cc2ccc(CN3CCOCC3)cc2)cc1)n1cncc(O)c1=O (stereo not shown) [Compound 107] |  | > 32 µg/mL | 8 to 32 µg/mL (≈ 17.5 to 69.9 µM) |  | > 32 µg/mL |  | 
O=c1c(O)cncn1CCc1ccc(C#Cc2ccc(CN3CCOCC3)cc2)cc1 [Compound 73, 5-hydroxy-3-(4-((4-(morpholinomethyl)phenyl)ethynyl)phenethyl)-pyrimidin-4(3H)-one] | > 32 µg/mL |  |  | 1 to 8 µg/mL (≈ 2.41 to 19.3 µM) |  | > 32 µg/mL | > 32 µg/mL
O=c1c(O)cncn1CCc1ccc(C#Cc2ccc(CN3CCOCC3)cc2)cc1 [Compound 105, 5-hydroxy-3-(4-((4-(morpholinomethyl)phenyl)ethynyl)phenethyl)pyrimidin-4(3H)-one] |  | 8 to 32 µg/mL (≈ 19.3 to 77 µM) | 1 to 8 µg/mL (≈ 2.41 to 19.3 µM) |  | 1 to 8 µg/mL (≈ 2.41 to 19.3 µM) |  | 
CC(C)(O)C(Cc1ccc(C#Cc2ccc(CN3CCOCC3)cc2)cc1)c1nc[nH]c(=O)c1O (stereo not shown) [Compound 112] |  | 8 to 32 µg/mL (≈ 16.9 to 67.6 µM) | < 1 µg/mL |  | 1 to 8 µg/mL (≈ 2.11 to 16.9 µM) |  | 
O=c1[nH]cnc(CCc2ccc(C#Cc3ccc(CN4CCOCC4)cc3)cc2)c1O [Compound 104, 5-hydroxy-6-(4-((4-(morpholinomethyl)phenyl)ethynyl)phenethyl)pyrimidin-4(3H)-one] |  | 8 to 32 µg/mL (≈ 19.3 to 77 µM) | 1 to 8 µg/mL (≈ 2.41 to 19.3 µM) |  | 8 to 32 µg/mL (≈ 19.3 to 77 µM) |  | 
